Measurements from ChEMBL document CHEMBL5325501, “Discovery of BWA-522, a First-in-Class and Orally Bioavailable PROTAC Degrader of the Androgen Receptor Targeting N-Terminal Domain for the Treatment of Prostate Cancer” (J Med Chem, 2023).
pIC50: −log10 of the molar value. Activity calls are given as the source filed them. The calls are words filed in the database; no cut-off is given here.

How the values were obtained:
[1] = Tmax in ICR mouse at 10 mg/kg, po measured by LC-MS/MS analysis; type: ADME, organism-based; conditions: in vivo
[2] = Cmax in ICR mouse at 10 mg/kg, po measured by LC-MS/MS analysis; type: ADME, organism-based; design: dose 10 mg/kg, route po; conditions: in vivo
[3] = Half-life in ICR mouse at 2 mg/kg, iv measured by LC-MS/MS analysis; type: ADME, organism-based; conditions: in vivo
[4] = Cmax in ICR mouse at 2 mg/kg, iv measured by LC-MS/MS analysis; type: ADME, organism-based; design: dose 2 mg/kg, route iv; conditions: in vivo
[5] = Half-life in ICR mouse at 10 mg/kg, po measured by LC-MS/MS analysis; type: ADME, organism-based; conditions: in vivo
[6] = Oral bioavailability in ICR mouse at 10 mg/kg measured by LC-MS/MS analysis; type: ADME, organism-based; conditions: in vivo
[7] = Tmax in beagle dog at 1 mg/kg, iv measured by LC-MS/MS analysis; type: ADME, organism-based, Canis lupus familiaris; conditions: in vivo
[8] = Cmax in beagle dog at 1 mg/kg, iv measured by LC-MS/MS analysis; type: ADME, organism-based, Canis lupus familiaris; design: dose 1 mg/kg, route iv; conditions: in vivo
[9] = Clearance in beagle dog at 1 mg/kg, iv measured by LC-MS/MS analysis; type: ADME, organism-based, Canis lupus familiaris; conditions: in vivo
[10] = Cmax in beagle dog at 5 mg/kg, po measured by LC-MS/MS analysis; type: ADME, organism-based, Canis lupus familiaris; design: dose 5 mg/kg, route po; conditions: in vivo
[11] = Metabolic stability in mouse liver microsomes assessed as parent compound remaining at 2 uM preincubated for 10 mins followed by compound addition and measured after 60 mins by LC-MS/MS analysis; type: ADME, Microsome; conditions: read-out: Stability
[12] = Metabolic stability in mouse liver microsomes assessed as half-life at 2 uM preincubated for 10 mins in the presence of NADPH followed by compound addition and measured after 60 mins by LC-MS/MS analysis; type: ADME, Microsome
[13] = Metabolic stability in mouse liver microsomes assessed as intrinsic clearance at 2 uM preincubated for 10 mins in the presence of NADPH followed by compound addition and measured per mg protein after 60 mins by LC-MS/MS analysis; type: ADME, Microsome; conditions: read-out: CLH
[14] = Metabolic stability in human liver microsomes assessed as parent compound remaining at 2 uM preincubated for 10 mins in the presence of NADPH followed by compound addition and measured after 60 mins by LC-MS/MS analysis; type: ADME, Microsome; conditions: read-out: Stability
[15] = Metabolic stability in human liver microsomes assessed as parent compound remaining at 2 uM preincubated for 10 mins followed by compound addition and measured after 60 mins by LC-MS/MS analysis; type: ADME, Microsome; conditions: read-out: Stability
[16] = Stability in mouse plasma assessed as parent compound remaining measured after 15 mins by LC-MS/MS analysis; type: ADME, cell-free; conditions: read-out: Stability
[17] = Stability in mouse plasma assessed as parent compound remaining measured after 45 mins by LC-MS/MS analysis; type: ADME, cell-free; conditions: read-out: Stability
[18] = Stability in mouse plasma assessed as parent compound remaining measured after 60 mins by LC-MS/MS analysis; type: ADME, cell-free; conditions: read-out: Stability
[19] = Stability in mouse plasma assessed as parent compound remaining measured after 120 mins by LC-MS/MS analysis; type: ADME, cell-free; conditions: read-out: Stability
[20] = Stability in human plasma assessed as parent compound remaining measured after 15 mins by LC-MS/MS analysis; type: ADME, cell-free; conditions: read-out: Stability
[21] = Stability in human plasma assessed as parent compound remaining measured after 30 mins by LC-MS/MS analysis; type: ADME, cell-free; conditions: read-out: Stability
[22] = Stability in human plasma assessed as parent compound remaining measured after 45 mins by LC-MS/MS analysis; type: ADME, cell-free; conditions: read-out: Stability
[23] = Stability in human plasma assessed as parent compound remaining measured after 60 mins by LC-MS/MS analysis; type: ADME, cell-free; conditions: read-out: Stability
[24] = Stability in human plasma assessed as parent compound remaining measured after 120 mins by LC-MS/MS analysis; type: ADME, cell-free; conditions: read-out: Stability
[25] = target: Voltage-gated inwardly rectifying potassium channel KCNH2 (Homo sapiens, UniProt Q12809); assay: Inhibition of hERG in HEK293 cells by whole-cell manual patch clamp technique; type: toxicity, cell-based
LNCaP [26] = assay: Antiproliferative activity against human LNCaP cells assessed as reduction in cell viability incubated for 6 days by CCK-8 assay; type: functional, cell-based; conditions: 144 h
VCaP [27] = assay: Antiproliferative activity against AR-dependent human VCaP cells assessed as reduction in cell viability at 3 to 10 uM incubated for 6 days by CCK-8 assay; type: functional, cell-based; conditions: dose 3-10 µM, time 6.0 day
CWR22R = assay: Antiproliferative activity against AR-dependent human 22Rv1 cells assessed as reduction in cell viability at 3 to 10 uM incubated for 6 days by CCK-8 assay; type: functional, cell-based; conditions: dose 3-10 µM, time 6.0 day
DU-145 = assay: Antiproliferative activity against AR-independent human DU-145 cells assessed as reduction in cell viability at 10 uM incubated for 6 days by CCK-8 assay; type: functional, cell-based; conditions: time 6.0 day
RWPE-1 = assay: Cytotoxicity against human RWPE-1 cells assessed as reduction in cell viability incubated for 6 days by CCK8 assay; type: toxicity, cell-based; conditions: rwpe-1, 144 h, time 6 day
LNCaP [28] = assay: Inhibition of colony formation in human LNCaP cells incubated for 2 weeks by crystal violet staining based analysis; type: functional, cell-based; conditions: dose 1-10 µM
LNCaP [29] = assay: Downregulation of TMPRSS2 protein level in human LNCaP cells incubated for 48 hrs by Western blot analysis; type: functional, cell-based; conditions: dose 1-10 µM
LNCaP [30] = assay: Downregulation of FKBP51 protein level in human LNCaP cells incubated for 48 hrs by Western blot analysis; type: functional, cell-based; conditions: dose 1-10 µM
LNCaP [31] = assay: Downregulation of PSA protein level in human LNCaP cells incubated for 48 hrs by Western blot analysis; type: functional, cell-based; conditions: dose 1-10 µM
VCaP [32] = assay: Downregulation of TMPRSS2 protein level in human VCaP cells incubated for 48 hrs by Western blot analysis; type: functional, cell-based; conditions: dose 1-10 µM
VCaP [33] = assay: Downregulation of FKBP51 protein level in human VCaP cells incubated for 48 hrs by Western blot analysis; type: functional, cell-based; conditions: dose 1-10 µM
LNCaP [34] = assay: Induction of apoptosis in human LNCaP cells assessed as caspase-3 cleavage at 5 to 10 uM incubated for 48 hrs by Western blot analysis; type: functional, cell-based; conditions: dose 5-10 µM
VCaP [35] = assay: Induction of apoptosis in human VCaP cells assessed as caspase-3 cleavage at 5 to 10 uM incubated for 48 hrs by Western blot analysis; type: functional, cell-based; conditions: dose 5-10 µM
LNCaP [36] = assay: Antitumor activity against human LNCaP cells xenografted in NOD SCID mouse assessed as inhibition of tumor volume at 20 to 60 mg/kg, po administered daily for 4 weeks; type: functional, organism-based; conditions: dose 20-60 mg/kg
LNCaP [37] = assay: Antitumor activity against human LNCaP cells xenografted in NOD SCID mouse assessed as reduction in tumor weight at 20 to 60 mg/kg, po administered daily for 4 weeks; type: functional, organism-based; conditions: dose 20-60 mg/kg
LNCaP [38] = assay: Antitumor activity against human LNCaP cells xenografted in NOD SCID mouse assessed as tumor growth inhibition at 20 mg/kg, po administered daily for 4 weeks relative to control; type: functional; conditions: 672 h, read-out: TGI
LNCaP [39] = assay: Antitumor activity against human LNCaP cells xenografted in NOD SCID mouse assessed as tumor growth inhibition at 60 mg/kg, po administered daily for 4 weeks relative to control; type: functional; conditions: 672 h, read-out: TGI
[40] = Toxicity in ICR mouse assessed as body weight loss at 20 to 60 mg/kg, po administered daily for 14 days; type: organism-based; conditions: in vivo, 336 h, dose 20-60 mg/kg, time 14 day
[41] = Toxicity in ICR mouse assessed as lung damage at 20 to 60 mg/kg, po administered daily for 14 days; type: organism-based; conditions: in vivo, 336 h, dose 20-60 mg/kg, time 14 day
[42] = Toxicity in ICR mouse assessed as spleen damage at 20 to 60 mg/kg, po administered daily for 14 days; type: organism-based; conditions: in vivo, 336 h, dose 20-60 mg/kg, time 14 day

Voltage-gated inwardly rectifying potassium channel KCNH2, sequence (Q12809 whole entry): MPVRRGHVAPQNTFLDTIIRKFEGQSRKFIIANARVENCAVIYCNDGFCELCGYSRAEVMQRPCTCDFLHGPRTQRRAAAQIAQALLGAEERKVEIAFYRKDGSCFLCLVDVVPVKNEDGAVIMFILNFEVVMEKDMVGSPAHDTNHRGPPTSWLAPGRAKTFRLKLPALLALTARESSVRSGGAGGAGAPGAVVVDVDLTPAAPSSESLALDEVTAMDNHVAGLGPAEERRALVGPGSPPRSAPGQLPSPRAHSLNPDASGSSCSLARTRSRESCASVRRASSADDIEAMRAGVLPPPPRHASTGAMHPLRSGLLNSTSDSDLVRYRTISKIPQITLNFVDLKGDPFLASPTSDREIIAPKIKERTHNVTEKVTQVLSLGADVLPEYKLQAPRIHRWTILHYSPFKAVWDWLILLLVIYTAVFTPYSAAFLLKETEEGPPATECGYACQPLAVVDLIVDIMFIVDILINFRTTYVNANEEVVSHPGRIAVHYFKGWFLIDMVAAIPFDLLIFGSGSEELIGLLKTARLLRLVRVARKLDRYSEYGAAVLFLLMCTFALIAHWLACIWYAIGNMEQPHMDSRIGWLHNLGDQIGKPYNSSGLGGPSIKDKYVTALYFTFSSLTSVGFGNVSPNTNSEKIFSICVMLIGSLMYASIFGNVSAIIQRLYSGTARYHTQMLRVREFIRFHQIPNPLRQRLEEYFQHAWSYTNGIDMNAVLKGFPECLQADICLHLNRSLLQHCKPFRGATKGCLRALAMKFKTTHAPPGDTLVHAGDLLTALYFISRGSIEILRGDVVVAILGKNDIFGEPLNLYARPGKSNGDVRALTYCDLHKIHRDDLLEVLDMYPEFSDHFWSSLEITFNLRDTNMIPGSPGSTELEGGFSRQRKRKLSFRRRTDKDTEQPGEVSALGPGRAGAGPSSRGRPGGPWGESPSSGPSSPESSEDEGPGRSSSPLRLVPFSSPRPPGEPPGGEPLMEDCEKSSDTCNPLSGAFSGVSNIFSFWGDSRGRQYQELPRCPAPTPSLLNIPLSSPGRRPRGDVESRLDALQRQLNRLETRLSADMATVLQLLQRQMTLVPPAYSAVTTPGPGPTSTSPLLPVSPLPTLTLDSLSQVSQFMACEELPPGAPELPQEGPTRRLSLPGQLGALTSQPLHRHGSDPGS

CC(C)(c1ccc(OCC2CCN(CC3CCN(c4ccc5c(c4)C(=O)N(C4CCC(=O)NC4=O)C5=O)CC3)CC2)cc1)c1ccc(OC[C@H](O)CCl)cc1 (stereo not given in full)
Tmax [1]: 4.7 h | Cmax [2]: 376 ng/mL | half-life [3]: 8.2 h | Cmax [4]: 782 ng/mL | half-life [5]: 7.9 h | bioavailability [6]: 40.5% | Tmax [7]: 6 min | Cmax [8]: 150 ng/mL | clearance [9]: 15.5 mL/min/kg | Cmax [10]: 97.3 ng/mL | remaining at 1 h, 2 µM [11]: 99.5% | half-life at 2 µM [12]: 3.12 h | microsomal CLint at 2 µM [13]: 7.4 µL/min/mg | remaining at 1 h, 2 µM [14]: 80.9% | remaining at 1 h, 2 µM [15]: 94% | remaining at 0.25 h [16]: 88% | remaining at 0.75 h [17]: 102% | remaining at 1 h [18]: 90.8% | remaining at 2 h [19]: 91.2% | remaining at 0.25 h [20]: 92.2% | remaining at 0.5 h [21]: 92.1% | remaining at 0.75 h [22]: 93.9% | remaining at 1 h [23]: 91.9% | remaining at 2 h [24]: 87.3% | pIC50 [25]: < 5.00 | pIC50 (LNCaP [26]): 5.97 | Activity (VCaP [27]): Active | Activity (CWR22R): Active | Activity (DU-145): inactive | Activity (RWPE-1): Non-Toxic | inhibition (LNCaP [28]): Dose-Dependent Effect | Activity (LNCaP [29]): Dose-Dependent Effect | Activity (LNCaP [30]): Dose-Dependent Effect | Activity (LNCaP [31]): Dose-Dependent Effect | Activity (VCaP [32]): Dose-Dependent Effect | Activity (VCaP [33]): Dose-Dependent Effect | Activity (LNCaP [34]): Active | Activity (VCaP [35]): Active | Activity (LNCaP [36]): Active | Activity (LNCaP [37]): Active | inhibition in vivo at 20 mg/kg (LNCaP [38]): 26% | inhibition in vivo at 60 mg/kg (LNCaP [39]): 76% | Activity [40]: Non-Toxic | Activity [41]: Non-Toxic | Activity [42]: Non-Toxic
